Type in all cases: biochemical
One experiment has as its target T1, HDAC6 (Homo sapiens, UniProt Q9UBN7).
T1 sequence (Q9UBN7 1-1215): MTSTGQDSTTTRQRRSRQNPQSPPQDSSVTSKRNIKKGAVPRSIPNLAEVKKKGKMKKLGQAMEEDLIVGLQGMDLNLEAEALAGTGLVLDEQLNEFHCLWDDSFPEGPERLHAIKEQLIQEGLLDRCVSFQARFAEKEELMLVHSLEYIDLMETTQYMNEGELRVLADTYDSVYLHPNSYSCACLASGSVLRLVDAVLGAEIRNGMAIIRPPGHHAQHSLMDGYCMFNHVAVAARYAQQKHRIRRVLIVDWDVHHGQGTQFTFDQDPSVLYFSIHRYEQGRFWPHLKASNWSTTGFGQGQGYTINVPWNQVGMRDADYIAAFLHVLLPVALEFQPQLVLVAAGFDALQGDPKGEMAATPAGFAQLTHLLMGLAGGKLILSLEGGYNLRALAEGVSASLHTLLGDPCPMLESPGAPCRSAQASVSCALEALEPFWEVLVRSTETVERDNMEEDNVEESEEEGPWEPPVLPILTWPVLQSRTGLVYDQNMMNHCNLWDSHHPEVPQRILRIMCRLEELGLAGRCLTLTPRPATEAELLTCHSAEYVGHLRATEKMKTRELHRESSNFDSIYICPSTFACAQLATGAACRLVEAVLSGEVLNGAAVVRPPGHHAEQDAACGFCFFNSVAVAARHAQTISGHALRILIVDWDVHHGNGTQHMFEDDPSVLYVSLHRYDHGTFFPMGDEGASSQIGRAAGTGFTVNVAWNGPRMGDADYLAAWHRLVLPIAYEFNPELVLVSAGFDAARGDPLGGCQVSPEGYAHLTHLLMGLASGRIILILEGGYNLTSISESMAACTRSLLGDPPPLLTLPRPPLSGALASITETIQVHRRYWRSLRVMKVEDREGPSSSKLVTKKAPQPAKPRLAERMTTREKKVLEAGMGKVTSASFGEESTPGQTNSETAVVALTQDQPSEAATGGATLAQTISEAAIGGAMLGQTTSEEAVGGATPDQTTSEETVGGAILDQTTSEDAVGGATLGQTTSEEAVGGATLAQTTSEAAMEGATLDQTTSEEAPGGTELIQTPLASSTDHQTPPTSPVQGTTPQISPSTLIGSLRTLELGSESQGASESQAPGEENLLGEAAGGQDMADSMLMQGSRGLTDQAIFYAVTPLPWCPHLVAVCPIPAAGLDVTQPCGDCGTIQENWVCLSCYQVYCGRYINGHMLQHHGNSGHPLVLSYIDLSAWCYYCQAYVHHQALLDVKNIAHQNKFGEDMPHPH
Description: Human HDAC enzyme inhibitor Fluor-de-Lys assay, HDAC6.

A further experiment has as its target T2, Recombinant human HDAC1 (Homo sapiens, UniProt Q13547).
T2 construct: FLAG (C); made in house
Description: Human HDAC enzyme inhibitor Fluor-de-Lys assay, HDAC1. Put shortly:
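Fluor-de-Lys format at room temperature (23° C.): compounds titrated 10-point, 1:3, preincubated with HDAC before substrate addition; HDAC1 run at 0.3 nM enzyme with 20 μM BML-KI104. Developer with excess HDAC inhibitor ends the reaction, and trypsin-liberated AMC fluorescence is the read-out.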

In the next experiment the target is T3, Recombinant human HDAC2 (Homo sapiens, UniProt Q92769).
T3 construct: Full length human HDAC2-FLAG was expressed in baculovirus infected Sf9 cells; FLAG (C); made in house; host or cells: Sf9 (baculovirus)
Kind of experiment: Human HDAC enzyme inhibitor Fluor-de-Lys assay, HDAC2. In a few lines: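 Fluor-de-Lys format at room temperature (23° C.): compounds titrated 10-point, 1:3, preincubated with HDAC before substrate addition. Developer with excess HDAC inhibitor ends the reaction, and trypsin-liberated AMC fluorescence is the read-out.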

In experiment [1] the target is T4, Recombinant human HDAC3/SMRT heterodimer (Homo sapiens, UniProt O15379).
T4 construct: FLAG (C); made in house
Kind of experiment: Human HDAC enzyme inhibitor Fluor-de-Lys assay, HDAC3/SMRT.

The target of a further experiment is T5, Recombinant human HDAC8 (Homo sapiens, UniProt Q9BY41).
T5 construct: purchased Enzo Life Sciences BML-SE145-0100
T5 sequence (Q9BY41 1-377): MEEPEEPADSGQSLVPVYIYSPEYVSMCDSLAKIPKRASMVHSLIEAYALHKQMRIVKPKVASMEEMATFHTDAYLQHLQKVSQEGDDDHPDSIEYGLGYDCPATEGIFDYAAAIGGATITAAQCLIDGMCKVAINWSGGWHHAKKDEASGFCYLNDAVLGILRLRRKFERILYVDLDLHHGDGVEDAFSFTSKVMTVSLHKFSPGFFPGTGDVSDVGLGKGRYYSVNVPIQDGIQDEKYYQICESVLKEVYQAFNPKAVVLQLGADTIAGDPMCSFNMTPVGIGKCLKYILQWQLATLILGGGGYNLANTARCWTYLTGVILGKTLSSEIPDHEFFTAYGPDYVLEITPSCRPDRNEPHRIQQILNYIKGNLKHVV
Kind of experiment: Human HDAC enzyme inhibitor Fluor-de-Lys assay, HDAC8.

This is an account of results in US12590099B2, “Inhibitors of histone deacetylase useful for the treatment or prevention of HIV infection” (Merck Sharp & Dohme LLC, priority 2018, dated 2026).

Each structure is given as a SMILES string. pIC50: −log10 of the molar value.

T3 sequence (Q92769 whole entry): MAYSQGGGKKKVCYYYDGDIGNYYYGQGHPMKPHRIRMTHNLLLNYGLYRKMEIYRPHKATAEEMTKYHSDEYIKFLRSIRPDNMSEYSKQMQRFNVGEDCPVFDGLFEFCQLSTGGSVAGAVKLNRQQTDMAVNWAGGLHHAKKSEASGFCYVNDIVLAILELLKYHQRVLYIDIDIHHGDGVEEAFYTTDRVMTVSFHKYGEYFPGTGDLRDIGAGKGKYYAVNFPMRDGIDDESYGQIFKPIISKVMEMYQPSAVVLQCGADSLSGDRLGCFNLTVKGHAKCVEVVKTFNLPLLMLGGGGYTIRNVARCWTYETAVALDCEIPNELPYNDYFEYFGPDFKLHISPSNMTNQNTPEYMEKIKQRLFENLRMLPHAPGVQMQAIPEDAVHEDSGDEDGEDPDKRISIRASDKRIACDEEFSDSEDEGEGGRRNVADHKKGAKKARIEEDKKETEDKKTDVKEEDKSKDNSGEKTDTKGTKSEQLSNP
T2 sequence (Q13547 whole entry): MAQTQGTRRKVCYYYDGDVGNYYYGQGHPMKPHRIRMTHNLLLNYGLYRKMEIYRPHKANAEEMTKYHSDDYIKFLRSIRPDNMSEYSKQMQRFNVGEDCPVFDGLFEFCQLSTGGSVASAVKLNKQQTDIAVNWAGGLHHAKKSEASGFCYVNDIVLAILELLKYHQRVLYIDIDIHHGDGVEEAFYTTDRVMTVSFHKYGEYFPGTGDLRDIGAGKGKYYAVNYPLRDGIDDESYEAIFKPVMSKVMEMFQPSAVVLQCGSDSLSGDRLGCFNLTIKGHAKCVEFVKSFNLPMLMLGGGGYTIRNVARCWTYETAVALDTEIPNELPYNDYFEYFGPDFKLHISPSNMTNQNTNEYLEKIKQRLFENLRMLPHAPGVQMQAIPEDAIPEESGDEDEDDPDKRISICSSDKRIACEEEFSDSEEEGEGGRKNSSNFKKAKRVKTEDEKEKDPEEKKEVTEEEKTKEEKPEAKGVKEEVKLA
T4 sequence (O15379 whole entry): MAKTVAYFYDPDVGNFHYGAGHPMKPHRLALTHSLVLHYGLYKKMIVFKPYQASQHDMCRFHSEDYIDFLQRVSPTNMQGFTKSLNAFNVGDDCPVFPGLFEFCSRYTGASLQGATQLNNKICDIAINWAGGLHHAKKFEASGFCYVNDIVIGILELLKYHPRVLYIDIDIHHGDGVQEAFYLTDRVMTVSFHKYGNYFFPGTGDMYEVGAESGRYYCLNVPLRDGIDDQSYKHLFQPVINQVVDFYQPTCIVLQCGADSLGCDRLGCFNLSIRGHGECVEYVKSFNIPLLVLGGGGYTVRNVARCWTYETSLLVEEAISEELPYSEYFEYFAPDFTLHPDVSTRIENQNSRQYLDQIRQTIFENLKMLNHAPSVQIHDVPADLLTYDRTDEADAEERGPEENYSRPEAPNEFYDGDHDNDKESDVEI
T4 sequence (Q9Y618 1-899 partner limits assumed): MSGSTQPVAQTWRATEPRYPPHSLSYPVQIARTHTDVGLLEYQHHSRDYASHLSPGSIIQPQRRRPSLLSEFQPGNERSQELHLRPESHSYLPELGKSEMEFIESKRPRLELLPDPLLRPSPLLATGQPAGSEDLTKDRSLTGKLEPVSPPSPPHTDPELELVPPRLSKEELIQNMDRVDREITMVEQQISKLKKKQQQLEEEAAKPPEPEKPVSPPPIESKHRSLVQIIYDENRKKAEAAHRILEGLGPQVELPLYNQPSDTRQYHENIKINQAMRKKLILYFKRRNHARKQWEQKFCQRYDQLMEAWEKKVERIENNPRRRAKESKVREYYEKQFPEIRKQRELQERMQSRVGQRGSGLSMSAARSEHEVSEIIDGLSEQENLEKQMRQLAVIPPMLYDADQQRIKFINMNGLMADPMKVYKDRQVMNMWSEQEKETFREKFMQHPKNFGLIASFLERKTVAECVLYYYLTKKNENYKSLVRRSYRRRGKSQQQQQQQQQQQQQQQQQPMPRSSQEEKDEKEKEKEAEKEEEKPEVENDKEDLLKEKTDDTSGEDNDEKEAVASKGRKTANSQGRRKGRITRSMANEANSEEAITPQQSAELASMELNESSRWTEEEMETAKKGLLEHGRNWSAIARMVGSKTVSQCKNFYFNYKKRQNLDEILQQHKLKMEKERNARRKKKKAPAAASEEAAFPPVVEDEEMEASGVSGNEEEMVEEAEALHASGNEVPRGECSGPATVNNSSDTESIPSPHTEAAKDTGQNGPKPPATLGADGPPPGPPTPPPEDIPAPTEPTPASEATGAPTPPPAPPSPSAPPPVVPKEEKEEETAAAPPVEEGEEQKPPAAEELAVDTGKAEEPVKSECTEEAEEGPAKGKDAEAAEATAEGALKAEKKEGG

The term pIC50 denotes −log10 of the IC50, conventionally taken in molar units. On to `CCC(=O)CCCCC[C@H](NC(=O)C1=NOC2(CCN(CC3CC3)CC2)C1)c1ncc(-c2cc3ccc(C)nc3cc2OC)[nH]1` [Compound 219], for which the pIC50 at HDAC6 is below 6.05; on Recombinant human HDAC1, 10.00; at Recombinant human HDAC2, 8.74; in experiment [1], 9.47; on Recombinant human HDAC8, below 6.05.

`CCC(=O)CCCCC[C@H](NC(=O)[C@H]1CC12CCN(C)CC2)c1ncc(-c2cc(OC)ncc2F)o1` [Compound 220]: the pIC50 is below 6.05 against HDAC6; 7.52 on Recombinant human HDAC1; 6.60 at Recombinant human HDAC2; 7.48 in experiment [1]; below 6.05 at Recombinant human HDAC8.

In the case of `CCC(=O)CCCCC[C@H](NC(=O)C1=NOC2(CCN(C)CC2)C1)c1ncc(-c2cc3ccc(C)nc3cc2F)o1` [Compound 221], the pIC50 against HDAC6 was below 6.05; at Recombinant human HDAC1, 8.06; on Recombinant human HDAC2 it was 7.26; in experiment [1] it was 7.86; at Recombinant human HDAC8, below 6.05.
